# Assay results: patent US20040180835A1, “Use of the protein uk114 or of fragments thereof for the treatment and prevention of the endotoxic shock” (priority 2001, published 2004)
# Marks after values point to notes of the source that are not given here. No end group written: not given here.
# Test system: LPS-induced endotoxic shock
# Assay: LPS-induced endotoxic shock in mice (death rate after LPS injection)
# Type: in vivo, Balb/c mice
# Description: The pharmacological activity of UK 114 and of the peptides of the invention has been studied on the murine model of LPS-induced shock, as reported in the following Example.
# Balb/c mice 6-8 weeks old were treated i.p. with 30 mcg of UK114 in 100 μl PBS (group B) or with 4 mcg of peptide 76-90 (group C) 24 hours and one hour before the administration of 500 mcg of LPS. A control group of mice (group A) was tretated with 100 μl PBS according to the same protocol used for groups C and B.
# A further group was treated only with UK114 one hour after the administration of LPS (group D). This experimental approach more closely resembles the clinical practice where it is difficult to intervene prophylactically.
# The death rate of the animals in each group was recorded every 12 hours up to the third day from the LPS injection.
sequence,measurement,setting,value
VVKATVLLADINDFS [pep. 76-90],Death-rate (at 72 h),"prophylactic i.p. treatment 24 hours and one hour before 500 mcg LPS, UK114 30 mcg, peptide 76-90 4 mcg, 50 mice per group, PBS control 40/50 (80%)",25/50(50%)***
same,Protection from the lethal effects of LPS,"prophylactic treatment, 72 hours post LPS, vs PBS control group",clearly protected from the lethal effects of LPS
